The target in the test is T1, human Y4 receptor (Homo sapiens, UniProt P50391).
T1 construct: expressed in transfected cells
As to the kind of experiment: NPY4 cAMP HTRF Agonist Assay (inhibitory cAMP assay, Gi activation by Y4 agonism). The conditions noted are these: read-out: hY4 CAMP EC50. It is filed as cell-based. The gist of the method: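 Y4 agonism read as lowered forskolin-stimulated cAMP (HTRF, 1 h detection at room temperature). Stable human Y4 CHO clone, 5000 cells/well, incubated 30 min at room temperature with compounds plus forskolin and IBMX in PBS.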
For orientation: In TR-FRET formats the signal depends on donor and acceptor labels being close together.

Each structure is given as a SMILES string. Where two headings read alike, the source gives them in different places.

T1 sequence (P50391 whole entry): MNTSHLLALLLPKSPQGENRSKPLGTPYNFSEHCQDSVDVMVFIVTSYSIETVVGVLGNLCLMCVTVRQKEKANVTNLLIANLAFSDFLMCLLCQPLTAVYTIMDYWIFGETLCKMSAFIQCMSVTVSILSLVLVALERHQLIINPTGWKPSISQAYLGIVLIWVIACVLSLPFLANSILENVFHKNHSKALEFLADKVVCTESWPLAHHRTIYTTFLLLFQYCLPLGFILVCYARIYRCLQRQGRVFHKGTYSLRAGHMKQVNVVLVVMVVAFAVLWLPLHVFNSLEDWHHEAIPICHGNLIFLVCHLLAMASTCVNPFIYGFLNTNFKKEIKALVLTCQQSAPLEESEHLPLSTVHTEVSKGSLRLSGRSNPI

By EC50 is commonly meant the midpoint of the concentration-response curve. As to `CNC(=O)c1cccc(-c2ccnc(N[C@@H]3CCCC[C@H]3N[C@H]3CCCN(c4ccc(C#N)cc4)C3)c2)c1` [Example 261], under “TABLE 2, R2 is Phenyl-CN”, the EC50 was 9 nM. The same measure, in the same setting: next, `COc1ccccc1-c1ccnc(N[C@@H]2CCCC[C@H]2N[C@H]2CCCN(c3ccc(C#N)cc3)C2)c1` [Example 262]: 116 nM; `COc1cccc(-c2ccnc(N[C@@H]3CCCC[C@H]3N[C@H]3CCCN(c4ccc(C#N)cc4)C3)c2)c1` [Example 263]: 87 nM. Still for that read-out and setting: the figure for `N#Cc1ccc(N2C[C@@H]3C[C@H](N[C@@H]4CCCC[C@H]4Nc4ncc(-c5cccc(C(N)=O)c5)o4)[C@H]2C3)cc1` [Example 264] is 7 nM; for `N#Cc1ccc(N2CCC[C@H](N[C@@H]3CCCC[C@H]3Nc3ncc(-c4cccc(C(N)=O)c4)o3)C2)cc1` [Example 265] it is 2 nM; for `N#Cc1ccc(N2C[C@@H]3C[C@H](N[C@@H]4CCCC[C@H]4Nc4ncc(-c5cccc(C#N)c5)o4)[C@H]2C3)cc1` [Example 266] it is 181 nM. Regarding `C[C@@H](O)c1cccc(-c2ccnc(N[C@@H]3CCCC[C@H]3N[C@H]3CCCN(c4ccc(C#N)cc4)C3)c2)c1` [Example 267], the concentration for a half-maximal effect (EC50) (TABLE 2, R2 is Phenyl-CN) stood at 3 nM.

Consider `C[C@H](O)c1cccc(-c2ccnc(N[C@@H]3CCCC[C@H]3N[C@H]3CCCN(c4ccc(C#N)cc4)C3)c2)c1` [Example 268], for which the EC50 (TABLE 2, R2 is Phenyl-CN) was found to be 8 nM. Same read-out and setting: next, `N#Cc1ccc(N2CCC[C@H](N[C@@H]3CCCC[C@H]3Nc3cc(-c4cc(C#N)cs4)ccn3)C2)cc1` [Example 269]: 223 nM.

As to `N#Cc1ccc(N2CCC[C@H](N[C@@H]3CCCC[C@H]3Nc3cc(-c4ccccn4)ccn3)C2)cc1` [Example 270], the EC50 (TABLE 2, R2 is Phenyl-CN) was determined as 468 nM. On the same count and under the same terms, the figure for `Cc1ccc(-c2ccnc(N[C@@H]3CCCC[C@H]3N[C@H]3CCCN(c4ccc(C#N)cc4)C3)c2)cc1` [Example 271] is 461 nM; for `N#Cc1ccc(N2CCC[C@H](N[C@@H]3CCCC[C@H]3Nc3cc(-c4ccc(C#N)s4)ccn3)C2)cc1` [Example 273] it is 542 nM; for `N#Cc1ccc(N2CCC[C@H](N[C@@H]3CCCC[C@H]3Nc3cc(-c4ccccc4C#N)ccn3)C2)cc1` [Example 274] it is 272 nM. Still for that read-out and setting: the figure for `N#Cc1ccc(N2CCC[C@H](N[C@@H]3CCCC[C@H]3Nc3cc(-c4ccccc4N)ccn3)C2)cc1` [Example 275] is 872 nM. Still for that read-out and setting: the figure for `N#Cc1ccc(N2CCC[C@H](N[C@@H]3CCCC[C@H]3Nc3cc(-c4ccccc4O)ccn3)C2)cc1` [Example 276] is 120 nM; for `CC(=O)Nc1cc(-c2ccnc(N[C@@H]3CCCC[C@H]3N[C@H]3CCCN(c4ccc(C#N)cc4)C3)c2)ccn1` [Example 277] it is 8 nM. Take `CS(=O)(=O)NCc1cccc(-c2ccnc(N[C@@H]3CCCC[C@H]3N[C@H]3CCCN(c4ccc(C#N)cc4)C3)c2)c1` [Example 278]: the 50% effective concentration (EC50) (TABLE 2, R2 is Phenyl-CN) was found to be 24 nM. As for `N#Cc1ccc(N2CCC[C@H](N[C@@H]3CCCC[C@H]3Nc3cc(-c4cccc(N)c4)ccn3)C2)cc1` [Example 279], where the note is “TABLE 2, R2 is Phenyl-CN”, the EC50 turned out to be 12 nM. `N#Cc1ccc(N2CCC[C@H](N[C@@H]3CCCC[C@H]3Nc3cc(-n4cccc4)ccn3)C2)cc1` [Example 280]: the concentration for a half-maximal effect (EC50) (TABLE 2, R2 is Phenyl-CN) came out at 43 nM.

As to `N#Cc1ccc(N2CCC[C@H](N[C@@H]3CCCC[C@H]3Nc3cc4ccccc4cn3)C2)cc1` [Example 281], the EC50 (TABLE 2, R2 is Phenyl-CN) amounted to 152 nM. Still for that read-out and setting: next, `COC(=O)Nc1cccc(-c2cnc(N[C@@H]3CCCC[C@H]3N[C@H]3CCCN(c4ccc(C#N)cc4)C3)o2)c1` [Example 282]: 1 nM; `N#Cc1ccc(N2CCC[C@H](N[C@@H]3CCCC[C@H]3Nc3ncc4cc(F)ccc4n3)C2)cc1` [Example 283]: 308 nM. For the compound `N#Cc1ccc(N2CCC[C@H](N[C@@H]3CCCC[C@H]3Nc3cc(-n4cccn4)ccn3)C2)cc1` [Example 284], for the setting “TABLE 2, R2 is Phenyl-CN”, the half-maximal effective concentration (EC50) was determined as 176 nM. `N#Cc1ccc(-c2cnc(N[C@@H]3CCCC[C@H]3N[C@H]3CCCN(c4ccc([N+](=O)[O-])cc4)C3)o2)cc1` [Example 285]: the EC50 (TABLE 3, R2 is Phenyl-NO2) was determined as 26 nM. On the same count and under the same terms, next, `O=[N+]([O-])c1ccc(N2CCC[C@H](N[C@@H]3CCCC[C@H]3NC3=NOC(c4ccccc4)C3)C2)cc1` (some centres unmarked) [Example 286]: 74 nM. `C[C@]1(N[C@@H]2CCCC[C@H]2Nc2ncc(-c3ccc(OC(F)(F)F)cc3)o2)CCCN(c2ccc([N+](=O)[O-])cc2)C1` [Example 287]: the EC50 (TABLE 3, R2 is Phenyl-NO2) is 1 nM.

On to `N#Cc1cccc(-c2ccnc(N[C@@H]3CCCC[C@H]3N[C@H]3C[C@@H]4C[C@H]3N(c3ccc([N+](=O)[O-])cc3)C4)c2)c1` [Example 293], for which the 50% effective concentration (EC50) (TABLE 3, R2 is Phenyl-NO2) was 163 nM. The same measure, in the same setting: next, `NC(=O)c1cccc(-c2ccnc(N[C@@H]3CCCC[C@H]3N[C@H]3C[C@@H]4C[C@H]3N(c3ccc([N+](=O)[O-])cc3)C4)c2)c1` [Example 294]: 41 nM. As to `O=[N+]([O-])c1ccc(N2C[C@@H]3C[C@H](N[C@@H]4CCCC[C@H]4Nc4cc(Cl)ncn4)[C@H]2C3)cc1` [Example 295], the EC50 (TABLE 3, R2 is Phenyl-NO2) was determined as 122 nM. Regarding `O=[N+]([O-])c1ccc(N2C[C@@H]3C[C@H](N[C@@H]4CCCC[C@H]4Nc4cc(-c5ccc(OC(F)(F)F)cc5)ncn4)[C@H]2C3)cc1` [Example 296], where the note is “TABLE 3, R2 is Phenyl-NO2”, the EC50 was 68 nM. On the same count and under the same terms, next, `NC(=O)c1cccc(-c2cc(N[C@@H]3CCCC[C@H]3N[C@H]3C[C@@H]4C[C@H]3N(c3ccc([N+](=O)[O-])cc3)C4)ncn2)c1` [Example 297]: 163 nM. For the compound `C[C@]1(N[C@@H]2CCCC[C@H]2Nc2ncc(-c3cccc(C(N)=O)c3)o2)CCCN(c2ccc(C#N)cn2)C1` [Example 298], the 50% effective concentration (EC50) (TABLE 4, R2 is Pyridinyl-CN) amounted to 23 nM. Take `N#Cc1ccc(N2C[C@@H]3C[C@H](N[C@@H]4CCCC[C@H]4Nc4cc(-c5cccc(C(N)=O)c5)ccn4)[C@H]2C3)nc1` [Example 299]: where the note is “TABLE 4, R2 is Pyridinyl-CN”, the EC50 was found to be 392 nM. Turning to `N#Cc1ccc(N2CCC[C@H](N[C@@H]3CCCC[C@H]3Nc3cc(-c4cccc(C(N)=O)c4)ccn3)C2)nc1` [Example 300], the concentration giving a half-maximal response (EC50) (TABLE 4, R2 is Pyridinyl-CN) came to 130 nM. Same read-out and setting: next, `C[C@]1(N[C@@H]2CCCC[C@H]2Nc2cc(-c3cccc(C(N)=O)c3)ccn2)CCCN(c2ccc(C#N)cn2)C1` [Example 301]: 66 nM.

As for `N#Cc1ccc(N2C[C@@H]3C[C@H](N[C@@H]4CCCC[C@H]4Nc4cc(-c5cccc(C(N)=O)c5)ccn4)[C@H]2C3)cn1` [Example 302], the half-maximal effective concentration (EC50) (TABLE 4, R2 is Pyridinyl-CN) worked out at 1210 nM. `N#Cc1ccc(N2C[C@@H]3C[C@H](N[C@@H]4CCCC[C@H]4Nc4ncc(-c5cccc(C(N)=O)c5)o4)[C@H]2C3)cn1` [Example 303]: the EC50 (TABLE 4, R2 is Pyridinyl-CN) is 221 nM. Turning to `C[C@]1(N[C@@H]2CCCC[C@H]2Nc2ncc(-c3cccc(C(N)=O)c3)o2)CCCN(c2ccc(C#N)nc2)C1` [Example 304], under “TABLE 4, R2 is Pyridinyl-CN”, the EC50 was 3 nM. On the same count and under the same terms, next, `N#Cc1ccc(N2CCC[C@H](N[C@@H]3CCCC[C@H]3Nc3ncc(-c4cccc(C(N)=O)c4)o3)C2)cn1` [Example 305]: 7 nM. On the same count and under the same terms, the figure for `C[C@]1(N[C@@H]2CCCC[C@H]2Nc2cc(-c3cccc(C(N)=O)c3)ccn2)CCCN(c2ccc(C#N)nc2)C1` [Example 306] is 141 nM; for `N#Cc1cc(N2CCC[C@H](N[C@@H]3CCCC[C@H]3Nc3ncc(-c4ccc(OC(F)(F)F)cc4)o3)C2)ccn1` [Example 307] it is 7 nM; for `N#Cc1ccc(N2CCC[C@H](N[C@@H]3CCCC[C@H]3Nc3nccc(-c4ccccc4)n3)C2)cn1` [Example 308] it is 135 nM.

As to `N#Cc1ccc(N2CCC[C@H](N[C@@H]3CCCCC3Nc3ncc(-c4ccc(OC(F)(F)F)cc4)o3)C2)cn1` (some centres unmarked) [Example 309], for the setting “TABLE 4, R2 is Pyridinyl-CN”, the EC50 is 10 nM. As for `N#Cc1cc(N2C[C@@H]3C[C@H](N[C@@H]4CCCC[C@H]4Nc4ncc(-c5ccc(OC(F)(F)F)cc5)o4)[C@H]2C3)ccn1` [Example 310], under “TABLE 4, R2 is Pyridinyl-CN”, the EC50 was determined as 124 nM. Regarding `N#Cc1cc(N2CCC[C@H](N[C@@H]3CCCC[C@H]3Nc3ncc(-c4ccccc4OC(F)(F)F)o3)C2)ccn1` [Example 311], the EC50 (TABLE 4, R2 is Pyridinyl-CN) was determined as 9 nM. With `N#Cc1ccc(N2CCCC(N[C@@H]3CCCC[C@H]3Nc3cc(-c4cccc(C(N)=O)c4)ccn3)C2)cn1` (some centres unmarked) [Example 312], the EC50 (TABLE 4, R2 is Pyridinyl-CN) turned out to be 124 nM. Still for that read-out and setting: the figure for `CC(O)c1cccc(-c2ccnc(N[C@@H]3CCCC[C@H]3NC3CCCN(c4ccc(C#N)nc4)C3)c2)c1` (some centres unmarked) [Example 313] is 68 nM; for `CC(C)(O)c1cccc(-c2ccnc(N[C@@H]3CCCC[C@H]3NC3CCCN(c4ccc(C#N)nc4)C3)c2)c1` (some centres unmarked) [Example 314] it is 67 nM. As to `N#Cc1ccc(N2CCCC(N[C@@H]3CCCC[C@H]3Nc3ncc(-c4ccc(OC(F)(F)F)cc4)o3)C2)nc1` (some centres unmarked) [Example 315], the 50% effective concentration (EC50) (TABLE 4, R2 is Pyridinyl-CN) was found to be 15 nM. Same read-out and setting: next, `N#Cc1ccc(N2CCC[C@H](N[C@@H]3CCCC[C@H]3Nc3cc(-c4cccc(C(N)=O)c4)ccn3)C2)cn1` [Example 316]: 165 nM; `CC(C)(O)c1cccc(-c2ccnc(N[C@@H]3CCCC[C@H]3N[C@H]3CCCN(c4ccc(C#N)nc4)C3)c2)c1` [Example 317]: 105 nM. Take `NC(=O)c1cccc(-c2cnc(N[C@@H]3CCCC[C@H]3N[C@H]3CCCN(c4ccc(C(F)(F)F)cn4)C3)o2)c1` [Example 318]: the EC50 (TABLE 5, R2 is Pyridinyl-CF3) was 1 nM. On the same count and under the same terms, next, `NC(=O)c1cccc(-c2ccnc(N[C@@H]3CCCC[C@H]3N[C@H]3CCCN(c4ccc(C(F)(F)F)cn4)C3)c2)c1` [Example 319]: 10 nM; `NC(=O)c1cccc(-c2cnc(N[C@@H]3CCCC[C@H]3N[C@H]3CCCN(c4ccc(C(F)(F)F)nc4)C3)o2)c1` [Example 320]: 1 nM; `NC(=O)c1cccc(-c2ccnc(N[C@@H]3CCCC[C@H]3N[C@H]3CCCN(c4ccc(C(F)(F)F)nc4)C3)c2)c1` [Example 321]: 16 nM. As to `C[C@]1(N[C@@H]2CCCC[C@H]2Nc2ncc(-c3cccc(C(N)=O)c3)o2)CCCN(c2ccc(C(F)(F)F)nc2)C1` [Example 322], the EC50 (TABLE 5, R2 is Pyridinyl-CF3) turned out to be 2 nM.

The record behind these values is US8815909B2, “Diaminocyclohexane compounds and uses thereof” (Bristol-Myers Squibb Company, priority 2011, dated 2014).
